Test results taken from ChEMBL document CHEMBL3885861, “Open TG-GATES”.

Species on record: Rattus norvegicus
Assay: Open TG-GATES - Regimen: Single
Format: toxicity, organism-based, Sprague-Dawley
Parameters: regimen Single, gender Male, age 6 weeks
Conditions: in vivo, po, 150 mg/kg, route gavage, dose level High; for APTT / Bas / Eos / Fbg / Hb / Ht / Lym / MCH / MCHC / MCV / Mono / Neu / PT / Plat / RBC / Ret / WBC: tissue Blood; for KIDNEY_L / KIDNEY_R / KIDNEY_TOTAL: tissue Kidney; for LIVER: tissue Liver; for A/G / ALP / ALT / AST / BUN / CRE / Ca / Cl / DBIL / GLC / IP / K / LDH / Na / PL / RALB / TBIL / TC / TG / TP / gamma-GTP: tissue Plasma

Compound: CN(C)CCC=C1c2ccccc2CCc2ccccc21 [AMITRIPTYLINE]
- TERMINAL_BW (3 h): 193.9 g
- APTT (3 h): 15.9 s
- Bas (3 h): 0.2%
- Eos (3 h): 0.4%
- Fbg (3 h): 285.6 mg/dL
- Hb (3 h): 13.4 g/dL
- Ht (3 h): 41.6%
- Lym (3 h): 75%
- MCH (3 h): 20.9 pg
- MCHC (3 h): 32.1%
- MCV (3 h): 65 fL
- Mono (3 h): 3.2%
- Neu (3 h): 20.4%
- PT (3 h): 16 s
- Plat (3 h): 120.6 x10_4/uL
- RBC (3 h): 641.4 x10_4/ul
- Ret (3 h): 9.3%
- WBC (3 h): 71.3 x10_2/uL
- KIDNEY_L (3 h): 0.9 g
- KIDNEY_R (3 h): 0.9 g
- KIDNEY_TOTAL (3 h): 1.7 g
- LIVER (3 h): 8.5 g
- A/G (3 h): 0.8
- ALP (3 h): 1527.2 IU/L
- ALT (3 h): 53.2 IU/L
- AST (3 h): 74.6 IU/L
- BUN (3 h): 7.8 mg/dL
- CRE (3 h): 0.2 mg/dL
- Ca (3 h): 10.9 mg/dL
- Cl (3 h): 107.4 meq/L
- DBIL (3 h): 0.006 mg/dL
- GLC (3 h): 188 mg/dL
- IP (3 h): 9.9 mg/dL
- K (3 h): 4.3 meq/L
- LDH (3 h): 67.4 IU/L
- Na (3 h): 145.6 meq/L
- PL (3 h): 138.8 mg/dL
- RALB (3 h): 2.5 g/dL
- TBIL (3 h): 0.058 mg/dL
- TC (3 h): 77 mg/dL
- TG (3 h): 40.6 mg/dL
- TP (3 h): 5.5 g/dL
- gamma-GTP (3 h): 0.8 IU/L
- TERMINAL_BW (6 h): 191.7 g
- APTT (6 h): 16.4 s
- Bas (6 h): 0%
- Eos (6 h): 0.6%
- Fbg (6 h): 273.8 mg/dL
- Hb (6 h): 12.7 g/dL
- Ht (6 h): 39.3%
- Lym (6 h): 74%
- MCH (6 h): 20.9 pg
- MCHC (6 h): 32.3%
- MCV (6 h): 64.6 fL
- Mono (6 h): 3.2%
- Neu (6 h): 21.2%
- PT (6 h): 15.7 s
- Plat (6 h): 123.7 x10_4/uL
- RBC (6 h): 610.2 x10_4/ul
- Ret (6 h): 9.3%
- WBC (6 h): 89.4 x10_2/uL
- KIDNEY_L (6 h): 0.8 g
- KIDNEY_R (6 h): 0.8 g
- KIDNEY_TOTAL (6 h): 1.6 g
- LIVER (6 h): 7.8 g
- A/G (6 h): 0.9
- ALP (6 h): 1508.6 IU/L
- ALT (6 h): 50.4 IU/L
- AST (6 h): 71 IU/L
- BUN (6 h): 7.4 mg/dL
- CRE (6 h): 0.1 mg/dL
- Ca (6 h): 10.7 mg/dL
- Cl (6 h): 108.2 meq/L
- DBIL (6 h): 0.004 mg/dL
- GLC (6 h): 179.6 mg/dL
- IP (6 h): 9.9 mg/dL
- K (6 h): 4.4 meq/L
- LDH (6 h): 57.4 IU/L
- Na (6 h): 143.4 meq/L
- PL (6 h): 149.6 mg/dL
- RALB (6 h): 2.5 g/dL
- TBIL (6 h): 0.058 mg/dL
- TC (6 h): 85.6 mg/dL
- TG (6 h): 28.8 mg/dL
- TP (6 h): 5.4 g/dL
- gamma-GTP (6 h): 0.6 IU/L
- TERMINAL_BW (9 h): 193.2 g
- APTT (9 h): 15.6 s
- Bas (9 h): 0%
- Eos (9 h): 0.8%
- Fbg (9 h): 305.8 mg/dL
- Hb (9 h): 13.1 g/dL
- Ht (9 h): 40.5%
- Lym (9 h): 65.4%
- MCH (9 h): 21 pg
- MCHC (9 h): 32.4%
- MCV (9 h): 64.8 fL
- Mono (9 h): 2.6%
- Neu (9 h): 30.2%
- PT (9 h): 15.6 s
- Plat (9 h): 125.8 x10_4/uL
- RBC (9 h): 625.2 x10_4/ul
- Ret (9 h): 9.1%
- WBC (9 h): 70.1 x10_2/uL
- KIDNEY_L (9 h): 0.8 g
- KIDNEY_R (9 h): 0.8 g
- KIDNEY_TOTAL (9 h): 1.7 g
- LIVER (9 h): 7.7 g
- A/G (9 h): 0.8
- ALP (9 h): 1542.6 IU/L
- ALT (9 h): 44.8 IU/L
- AST (9 h): 68.6 IU/L
- BUN (9 h): 7 mg/dL
- CRE (9 h): 0.1 mg/dL
- Ca (9 h): 10.8 mg/dL
- Cl (9 h): 107 meq/L
- DBIL (9 h): 0.01 mg/dL
- GLC (9 h): 193.4 mg/dL
- IP (9 h): 10.7 mg/dL
- K (9 h): 4.1 meq/L
- LDH (9 h): 82.4 IU/L
- Na (9 h): 143.4 meq/L
- PL (9 h): 142 mg/dL
- RALB (9 h): 2.5 g/dL
- TBIL (9 h): 0.06 mg/dL
- TC (9 h): 80.8 mg/dL
- TG (9 h): 42.2 mg/dL
- TP (9 h): 5.5 g/dL
- gamma-GTP (9 h): 1 IU/L
- TERMINAL_BW (24 h): 191.9 g
- APTT (24 h): 16.6 s
- Bas (24 h): 0.2%
- Eos (24 h): 1.2%
- Fbg (24 h): 277.4 mg/dL
- Hb (24 h): 13.6 g/dL
- Ht (24 h): 41.4%
- Lym (24 h): 80.4%
- MCH (24 h): 20.9 pg
- MCHC (24 h): 32.8%
- MCV (24 h): 63.7 fL
- Mono (24 h): 3%
- Neu (24 h): 14.6%
- PT (24 h): 17 s
- Plat (24 h): 123.6 x10_4/uL
- RBC (24 h): 649.6 x10_4/ul
- Ret (24 h): 8.1%
- WBC (24 h): 79.1 x10_2/uL
- KIDNEY_L (24 h): 0.9 g
- KIDNEY_R (24 h): 0.9 g
- KIDNEY_TOTAL (24 h): 1.8 g
- LIVER (24 h): 7.6 g
- A/G (24 h): 0.8
- ALP (24 h): 1505.6 IU/L
- ALT (24 h): 40.4 IU/L
- AST (24 h): 63 IU/L
- BUN (24 h): 13.8 mg/dL
- CRE (24 h): 0.2 mg/dL
- Ca (24 h): 10.9 mg/dL
- Cl (24 h): 105 meq/L
- DBIL (24 h): 0.016 mg/dL
- GLC (24 h): 182.6 mg/dL
- IP (24 h): 8.7 mg/dL
- K (24 h): 4.4 meq/L
- LDH (24 h): 58 IU/L
- Na (24 h): 142.2 meq/L
- PL (24 h): 133 mg/dL
- RALB (24 h): 2.5 g/dL
- TBIL (24 h): 0.062 mg/dL
- TC (24 h): 78.8 mg/dL
- TG (24 h): 47.8 mg/dL
- TP (24 h): 5.6 g/dL
- gamma-GTP (24 h): 1 IU/L
